{"source": "ChEMBL document CHEMBL5625175", "about": "“Quinazoline-based VEGFR-2 inhibitors as potential anti-angiogenic agents: A contemporary perspective of SAR and molecular docking studies” (Eur J Med Chem, 2023)", "key": {"[1]": {"tested_on": "MCF7", "assay": "Antiproliferative activity against human MCF7 cells assessed as reduction in cell viability measured after 72 hrs by MTT assay", "format": "functional, cell-based", "conditions": "MCF7, 72 h"}, "[2]": {"tested_on": "HepG2", "assay": "Antiproliferative activity against human HepG2 cells assessed as reduction in cell viability measured after 72 hrs by MTT assay", "format": "functional, cell-based", "conditions": "HepG2, 72 h"}, "[3]": {"tested_on": "HepG2", "assay": "Antiproliferative activity against human HepG2 cells assessed as reduction in cell growth incubated for 48 hrs by MTT based colorimetric analysis", "format": "functional", "conditions": "HepG2, 48 h"}, "[4]": {"molecular_target": "T1, Vascular endothelial growth factor receptor 1 (Homo sapiens, UniProt P17948)", "T1 sequence (P17948 whole entry)": "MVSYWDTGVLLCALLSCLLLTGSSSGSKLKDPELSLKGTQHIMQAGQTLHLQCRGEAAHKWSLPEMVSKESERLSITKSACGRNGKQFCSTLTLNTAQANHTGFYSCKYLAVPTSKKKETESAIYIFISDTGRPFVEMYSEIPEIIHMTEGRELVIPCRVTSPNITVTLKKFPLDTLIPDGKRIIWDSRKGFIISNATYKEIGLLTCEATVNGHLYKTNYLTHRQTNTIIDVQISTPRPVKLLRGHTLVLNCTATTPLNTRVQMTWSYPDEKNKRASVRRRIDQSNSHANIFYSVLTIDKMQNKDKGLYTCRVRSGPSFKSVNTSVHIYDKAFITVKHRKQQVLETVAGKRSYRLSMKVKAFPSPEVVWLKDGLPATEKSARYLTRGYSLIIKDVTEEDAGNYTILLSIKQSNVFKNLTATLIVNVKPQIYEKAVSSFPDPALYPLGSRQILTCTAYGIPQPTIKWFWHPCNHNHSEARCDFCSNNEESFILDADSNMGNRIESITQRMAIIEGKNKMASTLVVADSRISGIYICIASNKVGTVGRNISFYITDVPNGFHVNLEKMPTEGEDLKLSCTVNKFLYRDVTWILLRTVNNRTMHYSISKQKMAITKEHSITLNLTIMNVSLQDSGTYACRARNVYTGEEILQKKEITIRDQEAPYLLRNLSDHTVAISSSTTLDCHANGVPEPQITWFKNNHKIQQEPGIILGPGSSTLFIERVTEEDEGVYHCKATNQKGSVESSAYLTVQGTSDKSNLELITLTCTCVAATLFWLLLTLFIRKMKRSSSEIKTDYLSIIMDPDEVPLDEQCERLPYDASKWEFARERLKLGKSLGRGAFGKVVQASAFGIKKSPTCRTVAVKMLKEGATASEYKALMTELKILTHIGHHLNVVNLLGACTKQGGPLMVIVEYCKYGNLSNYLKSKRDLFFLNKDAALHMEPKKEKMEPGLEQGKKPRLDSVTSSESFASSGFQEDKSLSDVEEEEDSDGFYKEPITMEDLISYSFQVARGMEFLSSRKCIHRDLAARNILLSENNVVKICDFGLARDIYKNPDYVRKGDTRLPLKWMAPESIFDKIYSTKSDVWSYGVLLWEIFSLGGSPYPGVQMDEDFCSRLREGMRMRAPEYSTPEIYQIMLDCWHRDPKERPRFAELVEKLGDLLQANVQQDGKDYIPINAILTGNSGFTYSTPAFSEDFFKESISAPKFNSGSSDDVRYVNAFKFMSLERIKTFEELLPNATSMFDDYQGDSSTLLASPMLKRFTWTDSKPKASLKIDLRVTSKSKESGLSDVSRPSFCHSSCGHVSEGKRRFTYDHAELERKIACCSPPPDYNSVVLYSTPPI", "assay": "Inhibition of VEGFR-1 (unknown origin) by HTRF method"}, "[5]": {"molecular_target": "T1, Vascular endothelial growth factor receptor 1", "assay": "Inhibition of VEGFR-1 (unknown origin) at 10 uM relative to control"}, "[6]": {"molecular_target": "T1, Vascular endothelial growth factor receptor 1", "assay": "Inhibition of VEGFR-1 (unknown origin)"}, "[7]": {"molecular_target": "T2, Vascular endothelial growth factor receptor 2 (Homo sapiens, UniProt P35968)", "T2 sequence (P35968 whole entry)": "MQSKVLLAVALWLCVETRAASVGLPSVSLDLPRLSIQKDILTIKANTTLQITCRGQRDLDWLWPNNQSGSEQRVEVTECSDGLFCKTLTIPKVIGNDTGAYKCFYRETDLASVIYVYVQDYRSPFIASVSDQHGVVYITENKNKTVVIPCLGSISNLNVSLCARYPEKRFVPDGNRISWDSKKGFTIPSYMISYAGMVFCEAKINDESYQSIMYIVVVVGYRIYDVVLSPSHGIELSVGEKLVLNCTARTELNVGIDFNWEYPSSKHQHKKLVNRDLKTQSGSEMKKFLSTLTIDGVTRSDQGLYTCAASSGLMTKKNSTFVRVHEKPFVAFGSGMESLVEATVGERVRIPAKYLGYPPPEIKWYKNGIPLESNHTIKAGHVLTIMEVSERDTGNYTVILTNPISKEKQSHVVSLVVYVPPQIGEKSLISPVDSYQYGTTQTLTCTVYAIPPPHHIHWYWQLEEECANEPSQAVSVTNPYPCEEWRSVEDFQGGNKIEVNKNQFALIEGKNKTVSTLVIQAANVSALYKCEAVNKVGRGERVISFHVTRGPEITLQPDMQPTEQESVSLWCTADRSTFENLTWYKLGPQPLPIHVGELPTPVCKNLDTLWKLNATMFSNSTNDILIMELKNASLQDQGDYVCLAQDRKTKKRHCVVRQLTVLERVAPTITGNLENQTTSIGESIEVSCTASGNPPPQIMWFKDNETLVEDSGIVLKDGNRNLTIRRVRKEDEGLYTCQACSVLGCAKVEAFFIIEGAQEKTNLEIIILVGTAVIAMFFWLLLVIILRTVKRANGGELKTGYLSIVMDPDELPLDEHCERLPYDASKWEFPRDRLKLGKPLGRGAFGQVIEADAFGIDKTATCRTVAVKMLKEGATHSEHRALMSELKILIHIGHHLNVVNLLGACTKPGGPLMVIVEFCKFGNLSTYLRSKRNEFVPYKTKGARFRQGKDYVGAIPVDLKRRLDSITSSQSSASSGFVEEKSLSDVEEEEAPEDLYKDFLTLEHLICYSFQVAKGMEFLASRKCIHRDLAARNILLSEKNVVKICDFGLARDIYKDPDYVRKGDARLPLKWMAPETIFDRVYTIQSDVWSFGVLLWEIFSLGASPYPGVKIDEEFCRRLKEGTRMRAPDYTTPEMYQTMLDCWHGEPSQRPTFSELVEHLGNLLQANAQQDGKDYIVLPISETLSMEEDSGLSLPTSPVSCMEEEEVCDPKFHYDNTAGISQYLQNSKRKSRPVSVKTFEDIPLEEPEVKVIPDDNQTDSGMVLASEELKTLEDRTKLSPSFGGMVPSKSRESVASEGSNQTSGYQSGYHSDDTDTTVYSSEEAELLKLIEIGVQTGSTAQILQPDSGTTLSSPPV"}, "[8]": {"molecular_target": "Vascular endothelial growth factor receptor 3 (Homo sapiens, UniProt P35916)", "assay": "Inhibition of VEGFR-3 (unknown origin)"}, "[9]": {"assay": "Intrinsic clearance in human hepatocytes at 0.5 uM measured after 10 mins by LC-MS/MS analysis", "format": "ADME, cell-based, Hepatocyte"}, "[10]": {"tested_on": "MHCC97H", "assay": "Antiproliferative activity against human MHCC97H cells assessed as reduction in cell viability incubated for 48 hrs by CCK-8 assay", "format": "functional, cell-based"}, "[11]": {"tested_on": "HUVEC", "assay": "Antiproliferative activity against HUVEC cells assessed as reduction in cell viability incubated for 48 hrs by CCK-8 assay", "format": "functional, cell-based", "conditions": "Homo sapiens"}, "[12]": {"tested_on": "HUVEC", "assay": "Antiproliferative activity against VEGF-stimulated HUVEC cells assessed as cell growth inhibition measured after 24 hrs by BrdUrd incorporation based spectrophotometric analysis", "format": "functional", "conditions": "Homo sapiens"}, "[13]": {"molecular_target": "T2, Vascular endothelial growth factor receptor 2", "assay": "Inhibition of human VEGFR-2 using biotinylated synthetic peptide biotin-aminohexyl-EEEEYFELVAKKKK-NH2 as substrate pre-incubated for 30 mins and measured after 30 mins by FRET assay"}, "[14]": {"tested_on": "PC-3", "assay": "Antiproliferative activity against human PC-3 cells assessed as reduction in cell growth measured after 24 hrs by MTT assay", "format": "functional, cell-based", "conditions": "PC-3, 24 h"}, "[15]": {"tested_on": "MCF7", "assay": "Antiproliferative activity against human MCF7 cells assessed as reduction in cell growth measured after 24 hrs by MTT assay", "format": "functional, cell-based", "conditions": "MCF7, 24 h"}, "[16]": {"tested_on": "HepG2", "assay": "Antiproliferative activity against human HepG2 cells assessed as reduction in cell growth measured after 24 hrs by MTT assay", "format": "functional, cell-based", "conditions": "HepG2, 24 h"}, "[17]": {"tested_on": "HEK293", "assay": "Cytotoxicity against HEK293 cells assessed as cell growth inhibition measured after 48 hrs by CCK-8 assay", "format": "functional, cell-based", "conditions": "Homo sapiens, HEK293, 48 h"}, "[18]": {"tested_on": "L02", "assay": "Cytotoxicity against human L02 cells assessed as cell growth inhibition measured after 48 hrs by CCK-8 assay", "format": "functional, cell-based", "conditions": "L02, 48 h"}, "[19]": {"tested_on": "A549", "assay": "Antitumor activity against human A549 cells assessed as reduction in cell viability incubated for 48 hrs by CCK-8 assay", "format": "functional, cell-based", "conditions": "A549, 48 h"}, "[20]": {"tested_on": "HT-29", "assay": "Antitumor activity against human HT-29 cells assessed as reduction in cell viability incubated for 48 hrs by CCK-8 assay", "format": "functional, cell-based", "conditions": "HT-29, 48 h"}, "[21]": {"tested_on": "MCF7", "assay": "Antitumor activity against human MCF7 cells assessed as reduction in cell viability incubated for 48 hrs by CCK-8 assay", "format": "functional, cell-based", "conditions": "MCF7, 48 h"}, "[22]": {"assay": "in vitro", "conditions": "human, HUVEC cells"}, "[23]": {"tested_on": "HUVEC", "assay": "cells", "conditions": "Homo sapiens"}, "[24]": {"tested_on": "HUVEC", "assay": "cells", "conditions": "Homo sapiens", "remark": "listed apart in the source"}, "[25]": {"assay": "Half life in rat at 5 mg/kg, iv", "format": "ADME, organism-based", "conditions": "in vivo"}, "[26]": {"tested_on": "Calu-6", "assay": "Antitumor activity against human Calu-6 cells xenografted in athymic mouse assessed as inhibition of tumor growth at 100 mg/kg, po administered once daily for 21 days relative to control", "format": "functional", "set-up": "scale not given: the % may be the effect or the level left", "conditions": "time 21 day"}, "[27]": {"assay": "Oral bioavailability in rat at 2.5 mg/kg", "format": "ADME, organism-based", "conditions": "in vivo"}, "[28]": {"molecular_target": "T2, Vascular endothelial growth factor receptor 2", "assay": "Inhibition of VEGFR-2 (unknown origin) kinase activity using poly(Glu-Tyr) at 4:1 ratio as substrate in presence of ATP incubated for 60 mins by ELISA"}, "[29]": {"molecular_target": "Serine/threonine-protein kinase B-raf (Homo sapiens, UniProt P15056)", "sequence (P15056 whole entry)": "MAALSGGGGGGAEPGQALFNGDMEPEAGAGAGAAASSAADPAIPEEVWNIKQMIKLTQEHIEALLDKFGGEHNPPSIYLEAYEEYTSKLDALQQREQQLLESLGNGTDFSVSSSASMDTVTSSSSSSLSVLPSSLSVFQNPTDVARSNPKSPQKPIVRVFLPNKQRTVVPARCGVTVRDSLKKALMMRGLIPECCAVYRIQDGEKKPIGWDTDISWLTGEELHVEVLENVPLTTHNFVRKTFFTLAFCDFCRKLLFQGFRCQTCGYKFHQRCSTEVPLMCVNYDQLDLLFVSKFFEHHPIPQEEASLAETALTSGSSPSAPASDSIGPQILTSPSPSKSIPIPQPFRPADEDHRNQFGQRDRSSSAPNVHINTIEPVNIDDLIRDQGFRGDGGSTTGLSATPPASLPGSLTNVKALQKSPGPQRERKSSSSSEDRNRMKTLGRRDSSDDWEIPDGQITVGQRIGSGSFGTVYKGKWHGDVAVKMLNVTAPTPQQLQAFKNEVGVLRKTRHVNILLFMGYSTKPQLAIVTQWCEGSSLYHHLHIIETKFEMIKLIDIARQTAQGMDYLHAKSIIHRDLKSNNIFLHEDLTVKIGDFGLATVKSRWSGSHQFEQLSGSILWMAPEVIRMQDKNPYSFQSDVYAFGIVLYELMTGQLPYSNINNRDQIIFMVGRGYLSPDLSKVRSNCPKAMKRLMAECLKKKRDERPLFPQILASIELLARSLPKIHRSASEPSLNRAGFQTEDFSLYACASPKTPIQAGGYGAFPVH", "assay": "Inhibition of human recombinant B-Raf using […] as substrate incubated for 40 mins in presence of [gamma33P]ATP by scintillation counter based kinase assay"}, "[30]": {"molecular_target": "RAF proto-oncogene serine/threonine-protein kinase (Homo sapiens, UniProt P04049)", "sequence (P04049 whole entry)": "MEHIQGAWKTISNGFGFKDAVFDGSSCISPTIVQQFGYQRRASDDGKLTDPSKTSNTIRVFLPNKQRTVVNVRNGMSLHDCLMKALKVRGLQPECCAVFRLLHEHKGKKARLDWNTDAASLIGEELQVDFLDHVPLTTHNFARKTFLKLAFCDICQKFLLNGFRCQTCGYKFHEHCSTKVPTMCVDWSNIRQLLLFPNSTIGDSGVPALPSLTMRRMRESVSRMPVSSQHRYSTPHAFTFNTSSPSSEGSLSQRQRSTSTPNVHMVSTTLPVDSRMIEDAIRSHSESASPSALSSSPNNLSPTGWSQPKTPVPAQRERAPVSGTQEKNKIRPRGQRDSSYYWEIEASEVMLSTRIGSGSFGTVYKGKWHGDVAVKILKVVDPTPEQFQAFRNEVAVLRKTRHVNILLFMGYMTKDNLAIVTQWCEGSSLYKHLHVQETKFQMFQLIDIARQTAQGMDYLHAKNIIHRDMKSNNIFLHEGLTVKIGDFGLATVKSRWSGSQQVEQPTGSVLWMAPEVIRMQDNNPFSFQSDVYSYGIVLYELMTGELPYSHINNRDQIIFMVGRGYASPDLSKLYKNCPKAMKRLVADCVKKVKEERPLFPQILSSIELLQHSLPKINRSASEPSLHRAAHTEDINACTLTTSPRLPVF", "assay": "Inhibition of human recombinant C-Raf using Glu-Tyr-Met-Pro-Met-Glu as substrate incubated for 60 mins by radiometric kinase assay"}, "[31]": {"molecular_target": "Serine/threonine-protein kinase B-raf (Homo sapiens, UniProt P15056, V600E)", "sequence (P15056 2-766 V600E limits assumed)": "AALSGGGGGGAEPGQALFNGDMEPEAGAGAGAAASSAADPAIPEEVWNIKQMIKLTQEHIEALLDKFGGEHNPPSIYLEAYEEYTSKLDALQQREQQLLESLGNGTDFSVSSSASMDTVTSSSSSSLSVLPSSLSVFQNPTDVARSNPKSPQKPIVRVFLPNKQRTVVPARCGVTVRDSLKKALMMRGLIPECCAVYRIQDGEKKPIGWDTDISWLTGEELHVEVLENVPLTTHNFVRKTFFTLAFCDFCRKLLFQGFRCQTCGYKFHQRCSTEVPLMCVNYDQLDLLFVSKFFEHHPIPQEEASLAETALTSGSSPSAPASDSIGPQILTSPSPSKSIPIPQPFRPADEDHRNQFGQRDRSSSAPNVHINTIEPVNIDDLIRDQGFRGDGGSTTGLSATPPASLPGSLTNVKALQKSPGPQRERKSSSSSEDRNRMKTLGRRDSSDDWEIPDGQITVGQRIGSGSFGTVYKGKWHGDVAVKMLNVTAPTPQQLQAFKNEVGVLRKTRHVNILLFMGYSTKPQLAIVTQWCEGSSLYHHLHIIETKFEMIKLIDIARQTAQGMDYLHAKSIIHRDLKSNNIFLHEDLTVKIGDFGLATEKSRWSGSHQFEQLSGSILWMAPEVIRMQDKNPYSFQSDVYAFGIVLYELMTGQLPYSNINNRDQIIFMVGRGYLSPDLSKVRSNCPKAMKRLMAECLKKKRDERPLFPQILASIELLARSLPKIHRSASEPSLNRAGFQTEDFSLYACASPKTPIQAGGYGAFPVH", "assay": "Inhibition of B-RAF V600E mutant (unknown origin) using […] as substrate incubated for 40 mins in presence of [gamma33P]ATP by scintillation counter based kinase assay"}, "[32]": {"molecular_target": "Epidermal growth factor receptor (Homo sapiens, UniProt P00533)", "assay": "Inhibition of human recombinant EGFR using poly(Glu-Tyr) as substrate at 4:1 ratio in presence of ATP incubated for 60 mins by ELISA analysis"}, "[33]": {"tested_on": "MCF7", "assay": "Antiproliferative activity against human MCF7 cells assessed as reduction in cell growth incubated for 24 hrs by MTT assay", "format": "functional, cell-based", "conditions": "MCF7, 24 h"}, "[34]": {"tested_on": "HCT-116", "assay": "Antiproliferative activity against human HCT-116 cells assessed as reduction in cell growth incubated for 24 hrs by MTT assay", "format": "functional, cell-based", "conditions": "HCT-116, 24 h"}, "[35]": {"tested_on": "HCT-116", "assay": "Antiproliferative activity against human HCT-116 cells assessed as reduction in cell viability measured after 48 hrs by MTT assay", "format": "functional, cell-based", "conditions": "HCT-116, 48 h"}, "[36]": {"tested_on": "MCF7", "assay": "Antiproliferative activity against human MCF7 cells assessed as reduction in cell viability measured after 48 hrs by MTT assay", "format": "functional, cell-based", "conditions": "MCF7, 48 h"}, "[37]": {"tested_on": "HepG2", "assay": "Cytotoxicity against human HepG2 cells assessed as cell growth inhibition", "format": "functional, cell-based"}, "[38]": {"tested_on": "HCT-116", "assay": "Cytotoxicity against human HCT-116 cells assessed as cell growth inhibition", "format": "functional, cell-based"}, "[39]": {"tested_on": "WISH", "assay": "Cytotoxicity against human WISH cells assessed as cell growth inhibition", "format": "functional, cell-based"}}, "note": "pEC50, pIC50: −log10 of the molar value."}
{"smiles": "CCn1c(SCCCN2C(=O)c3ccccc3C2=O)nc2cc3ccccc3cc2c1=O", "values": [{"measurement": "pIC50", "setting": "[1]", "value": 5.03}, {"measurement": "pIC50", "setting": "[2]", "value": 4.59}]}
{"smiles": "CCNC(=S)NS(=O)(=O)c1ccc(NC(=O)CSc2nc3ccccc3c(=O)n2CC)cc1", "values": [{"measurement": "pIC50", "setting": "[3]", "value": 5.36}]}
{"smiles": "COc1cc2ncnc(Nc3ccc(-c4noc(Cc5cc6ccccc6[nH]5)n4)cc3)c2cc1OC", "values": [{"measurement": "pIC50", "setting": "[4]", "value": 7.77}, {"measurement": "inhibition", "setting": "[5]", "value": 91, "unit": "%"}]}
{"smiles": "CCCNC(=O)Nc1ccc(Nc2ncnc3cc(OC)c(OC)cc23)cc1Cl", "values": [{"measurement": "pIC50", "setting": "[6]", "value": 6.77}, {"measurement": "pIC50", "setting": "[7]", "value": 6.80}, {"measurement": "pIC50", "setting": "[8]", "value": 6.90}]}
{"smiles": "COc1cc2ncnc(Nc3cc(O)c(C)cc3F)c2cc1OC", "values": [{"measurement": "CLH", "setting": "[9]", "value": 91.9, "unit": "µL/min"}]}
{"smiles": "COc1cc2nccc(Oc3ccc(NC(=O)C4(C(=O)Nc5ccc(F)cc5)CC4)cc3)c2cc1OC", "note": "[CABOZANTINIB]", "values": [{"measurement": "IC50", "setting": "[10]", "value": 25, "unit": "µg/mL"}, {"measurement": "IC50", "setting": "[11]", "value": 2.7, "unit": "µg/mL"}]}
{"smiles": "COc1cc2ncnc(Nc3ccsc3C(=O)Nc3ccc(F)c(Cl)c3)c2cc1OC", "values": [{"measurement": "pIC50", "setting": "[6]", "value": 6.96}, {"measurement": "pIC50", "setting": "[7]", "value": 7.06}]}
{"smiles": "COc1cc2nc(-c3ccccc3)n(-c3nnc(-c4ccc(Cl)cc4)s3)c(=O)c2cc1OC", "values": [{"measurement": "pIC50", "setting": "[12]", "value": 8.26}, {"measurement": "pIC50", "setting": "[13]", "value": 8.42}]}
{"smiles": "COc1cccc2c1C(=O)c1c(O)c3c(c(O)c1C2=O)C[C@@](O)(C(=O)CO)C[C@@H]3O[C@H]1C[C@H](N)[C@H](O)[C@H](C)O1", "note": "[DOXORUBICIN]", "values": [{"measurement": "IC50", "setting": "[14]", "value": 8.87, "unit": "µg/mL"}, {"measurement": "IC50", "setting": "[15]", "value": 6.75, "unit": "µg/mL"}, {"measurement": "IC50", "setting": "[16]", "value": 7.94, "unit": "µg/mL"}]}
{"smiles": "COCCOc1cc2ncnc(Oc3ccc(NC(=O)C4(C(=O)Nc5ccc(F)cc5)CC4)cc3F)c2c2c1OCCO2", "values": [{"measurement": "IC50", "setting": "[10]", "value": 15.1, "unit": "µg/mL"}, {"measurement": "IC50", "setting": "[17]", "value": 11.9, "unit": "µg/mL"}, {"measurement": "IC50", "setting": "[18]", "value": 12.2, "unit": "µg/mL"}, {"measurement": "IC50", "setting": "[11]", "value": 12.6, "unit": "µg/mL"}]}
{"smiles": "Cc1ccc(Nc2ncnc3cc(NC(=O)Nc4ccc(Cl)c(C(F)(F)F)c4)ccc23)cc1", "values": [{"measurement": "pIC50", "setting": "[19]", "value": 5.75}, {"measurement": "pIC50", "setting": "[20]", "value": 6.09}, {"measurement": "pIC50", "setting": "[21]", "value": 5.60}]}
{"smiles": "COc1cc2/c(=N/c3ccc(Br)cc3F)nc[nH]c2cc1OCC1CCN(C)CC1", "note": "[VANDETANIB]", "values": [{"measurement": "pEC50", "setting": "[22]", "value": "< 5.52"}, {"measurement": "pEC50", "setting": "[23]", "value": 7.22}, {"measurement": "pEC50", "setting": "[24]", "value": 8.00}, {"measurement": "half-life", "setting": "[25]", "value": 8.3, "unit": "h"}, {"measurement": "Activity", "setting": "[26]", "value": 79, "unit": "%"}, {"measurement": "bioavailability", "setting": "[27]", "value": "> 50", "unit": "%"}]}
{"smiles": "NC(=O)CCn1cc(-c2ccc3ncnc(Nc4cc(O)c(F)cc4F)c3c2)nn1", "values": [{"measurement": "pIC50", "setting": "[28]", "value": 8.15}, {"measurement": "pIC50", "setting": "[29]", "value": 7.24}, {"measurement": "pIC50", "setting": "[30]", "value": 6.00}, {"measurement": "pIC50", "setting": "[31]", "value": 7.29}, {"measurement": "pIC50", "setting": "[32]", "value": 7.14}]}
{"smiles": "CCn1c(SCC(=O)Nc2ccc(/C(C)=N/O)cc2)nc2ccccc2c1=O", "values": [{"measurement": "pIC50", "setting": "[33]", "value": 5.34}, {"measurement": "pIC50", "setting": "[34]", "value": 5.32}]}
{"smiles": "O=C(CSc1nc2ccc(Cl)cc2c(=O)n1-c1ccccc1)N/N=C/c1cccc(F)c1", "values": [{"measurement": "pIC50", "setting": "[35]", "value": 5.80}, {"measurement": "pIC50", "setting": "[36]", "value": 5.02}]}
{"smiles": "Cc1ccc2nc(-c3cccnc3)nc(NNC(=S)NC3CCCCC3)c2c1", "values": [{"measurement": "pIC50", "setting": "[37]", "value": 4.98}, {"measurement": "pIC50", "setting": "[38]", "value": 5.47}, {"measurement": "pIC50", "setting": "[39]", "value": 4.30}]}
